The target in assay [1] is T1, Human immunodeficiency virus type 1 integrase (Human immunodeficiency virus 1, UniProt Q7ZJM1). Briefly: Inhibition of HIV1 integrase strand transfer activity.
The target of assay [2] is T1, Human immunodeficiency virus type 1 integrase. Briefly: Inhibition of HIV1 integrase 3' processing activity.

T1 sequence (Q7ZJM1 whole entry): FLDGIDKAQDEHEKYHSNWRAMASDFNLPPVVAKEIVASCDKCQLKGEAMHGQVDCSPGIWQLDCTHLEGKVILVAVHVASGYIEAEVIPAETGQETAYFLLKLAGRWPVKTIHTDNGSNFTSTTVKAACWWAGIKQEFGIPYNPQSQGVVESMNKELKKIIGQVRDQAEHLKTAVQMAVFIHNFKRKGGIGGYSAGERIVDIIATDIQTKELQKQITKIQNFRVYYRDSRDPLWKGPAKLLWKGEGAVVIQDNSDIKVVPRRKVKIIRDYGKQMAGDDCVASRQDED

Take `COC(=O)C(=O)/C=C(\O)c1ccccc1`: the half-maximal inhibitory concentration (IC50) in assay [1] and in assay [2] was above 333 µM in each case.
With `COC(=O)C(=O)/C=C(\O)c1cccn1Cc1ccc(F)cc1`, the IC50 in assay [1] is 48 µM; in assay [2] it was 187 µM.

(Values after ChEMBL document CHEMBL1138095, “From ligand to complexes: inhibition of human immunodeficiency virus type 1 integrase by beta-diketo acid metal complexes” (J Med Chem, 2006).)
